Measurements as given in patent publication US6211215A, “Heterocyclic compounds, their production and use” (Takeda Chemical Industries, Ltd., priority 1996, dated 2001).

Experiment: Body weights of mice during the in vivo tumor experiments
Design: species or system Balb/C strain athymic nude mice
Procedure: 5,000,000 cells of human breast cancer cell line, MDA-MB-453, were suspended in a gelmatrix solution. The suspension was subcutaneously implanted at the breast in 7-week-old female Balb/C strain athymic nude mice (Friedman R. et al., Proceedings of the National Academy of Sciences of the U.S.A. Vol. 87, pp.6698-6702, 1990). Twelve days after the implantation, the diameters of tumors were determined. For the experiment were used 5 mice per group with similar tumor size. […] On the day when the dosing was ended, the diameters of tumors were measured. Tumor volume was calculated by the following formula: volume of tumor=longest diameter×shortest diameter×shortest diameter×1/2. […] The body weights of mice administered with Compound 8 of the present invention were measured during the experiment to observe no decrease.
5,000,000 cells of human breast cancer cell line, MDA-MB-453, were suspended in a gelmatrix solution. […] Twelve days after the implantation, the diameters of tumors were determined. […] On the day when the dosing was ended, the diameters of tumors were measured. Tumor volume was calculated by the following formula: volume of tumor=longest diameter×shortest diameter×shortest diameter×1/2. […] The body weights of mice administered with compounds of the present invention were measured during the experiment to observe no decrease. […]

## C(=C\c1nc(COc2ccc(CCCn3ccnc3)cc2)co1)/c1ccccc1 [Compound 8, 4-[4-[3-(1-imidazolyl)propyl]phenoxymethyl]-2-[(E)-2-phenylethenyl]oxazole]
Test Example 8, MDA-MB-453-bearing mice
  Body weight change: no decrease
Test Example 11, LNCaP-bearing mice, oral 30 mg/kg twice daily 21 days
  Body weight change: no decrease
